Laboratory results: ChEMBL document CHEMBL1914389, “Steroidal C-21 mercapto derivatives as dissociated steroids: discovery of an inhaled dissociated steroid” (Bioorg Med Chem Lett, 2011)

Tests used:
[1] = target: T1, Glucocorticoid receptor (Rattus norvegicus) (UniProt P06536); assay: Transactivation activity at glucocorticoid receptor in rat H4II-E cells assessed as induction of tyrosine amino transferase at 1 uM relative to control; assay type: cell-based
T1 sequence (whole entry): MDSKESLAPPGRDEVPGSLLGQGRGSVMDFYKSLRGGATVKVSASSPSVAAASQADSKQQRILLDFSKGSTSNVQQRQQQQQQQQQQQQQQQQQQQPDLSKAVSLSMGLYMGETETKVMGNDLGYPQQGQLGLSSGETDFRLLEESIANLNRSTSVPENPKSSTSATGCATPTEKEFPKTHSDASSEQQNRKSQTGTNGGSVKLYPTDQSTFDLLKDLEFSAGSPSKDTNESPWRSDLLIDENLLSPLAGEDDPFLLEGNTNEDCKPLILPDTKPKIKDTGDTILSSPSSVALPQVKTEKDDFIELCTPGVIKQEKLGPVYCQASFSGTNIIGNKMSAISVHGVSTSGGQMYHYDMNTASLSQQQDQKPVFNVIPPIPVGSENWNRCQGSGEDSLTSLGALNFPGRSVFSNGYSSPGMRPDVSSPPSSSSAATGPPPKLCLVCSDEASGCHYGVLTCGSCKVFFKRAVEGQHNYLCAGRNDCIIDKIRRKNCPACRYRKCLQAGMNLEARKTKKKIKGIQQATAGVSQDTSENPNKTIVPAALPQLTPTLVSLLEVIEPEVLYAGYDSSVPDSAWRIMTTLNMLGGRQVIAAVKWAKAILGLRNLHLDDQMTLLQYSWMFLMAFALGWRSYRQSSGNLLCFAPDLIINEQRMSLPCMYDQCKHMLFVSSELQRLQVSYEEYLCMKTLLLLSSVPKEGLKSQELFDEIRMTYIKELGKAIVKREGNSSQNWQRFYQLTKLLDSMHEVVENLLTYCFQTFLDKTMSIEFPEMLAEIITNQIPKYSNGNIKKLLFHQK

[2] = target: T2, Glucocorticoid receptor (Homo sapiens, UniProt P04150); assay: Inhibition of human glucocorticoid receptor
T2 sequence (P04150 whole entry): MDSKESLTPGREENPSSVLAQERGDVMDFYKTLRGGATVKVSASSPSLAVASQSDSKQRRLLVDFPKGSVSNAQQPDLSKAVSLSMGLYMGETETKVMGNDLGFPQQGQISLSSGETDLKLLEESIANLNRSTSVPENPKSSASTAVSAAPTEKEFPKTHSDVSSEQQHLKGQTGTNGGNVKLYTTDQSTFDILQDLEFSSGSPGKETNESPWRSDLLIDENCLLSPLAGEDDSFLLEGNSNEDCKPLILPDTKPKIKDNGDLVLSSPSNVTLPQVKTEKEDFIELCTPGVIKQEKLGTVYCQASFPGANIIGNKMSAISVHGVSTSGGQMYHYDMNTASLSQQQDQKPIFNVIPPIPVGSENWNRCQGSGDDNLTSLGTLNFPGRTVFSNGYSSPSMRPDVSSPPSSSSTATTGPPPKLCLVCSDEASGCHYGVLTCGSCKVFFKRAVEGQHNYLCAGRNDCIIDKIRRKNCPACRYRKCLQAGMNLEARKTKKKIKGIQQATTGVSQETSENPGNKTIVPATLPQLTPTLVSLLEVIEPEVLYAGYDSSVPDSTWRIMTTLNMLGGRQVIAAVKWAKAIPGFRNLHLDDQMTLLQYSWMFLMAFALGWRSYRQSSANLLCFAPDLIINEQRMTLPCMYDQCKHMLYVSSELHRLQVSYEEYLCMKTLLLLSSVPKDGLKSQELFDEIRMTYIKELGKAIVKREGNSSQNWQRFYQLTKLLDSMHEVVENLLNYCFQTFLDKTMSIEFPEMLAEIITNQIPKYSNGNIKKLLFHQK

[3] = target: T3, Glucocorticoid receptor (Homo sapiens) (UniProt P04150); assay: Transrepression activity at glucocorticoid receptor in human H292 cells assessed as inhibition of TNF-stimulated IL-6 cytokine synthesis at 1 uM relative to control; assay type: cell-based
T3 sequence (whole entry): T2 sequence (P04150 whole entry)

[4] = target: T2, Glucocorticoid receptor; assay: Transrepression activity at glucocorticoid receptor in human H292 cells assessed as inhibition of TNF-stimulated IL-6 cytokine synthesis; assay type: cell-based
[5] = target: T2, Glucocorticoid receptor; assay: Transactivation activity at glucocorticoid receptor in human HepG2 cells expressing luciferase-taggged GRE gene by luciferase reporter gene assay; assay type: cell-based
[6] = target: T3, Glucocorticoid receptor (Homo sapiens); assay: Transactivation activity at glucocorticoid receptor in human HepG2 cells expressing luciferase-taggged GRE gene at 1 uM by luciferase reporter gene assay relative to control; assay type: cell-based
[7] = test system: Rattus norvegicus; assay: Antiinflammatory activity in allergen challenged Brown-Norway rat assessed as inhibition of total BAL cell administered via nose as dry powder; assay type: functional
[8] = test system: Rattus norvegicus; assay: Toxicity in ip dosed Brown-Norway rat assessed as decrease in thymus weight administered for 3 days; assay type: organism-based; conditions: in vivo, 72 h
[9] = test system: Rattus norvegicus; assay: Toxicity in ip dosed Brown-Norway rat assessed as decrease in adrenal weight administered for 3 days; assay type: organism-based; conditions: in vivo, 72 h
[10] = test system: Rattus norvegicus; assay: Toxicity in ip dosed Brown-Norway rat assessed as decrease in body weight administered for 3 days; assay type: organism-based; conditions: in vivo, 72 h
[11] = test system: Rattus norvegicus; assay: Antiinflammatory activity in intratracheal insufflated allergen challenged Brown-Norway rat assessed as inhibition of inflammatory cell influx administered as single dose; assay type: functional; conditions: inhaled or nasal
[12] = target: T3, Glucocorticoid receptor (Homo sapiens); assay: Transactivation activity at glucocorticoid receptor in human HepG2 cells assessed as induction of tyrosine amino transferase at 1 uM relative to control; assay type: cell-based
[13] = test system: Lung; assay: Drug uptake in lung of Brown-Norway rat; assay type: ADME, tissue-based; conditions: in vivo
[14] = target: T2, Glucocorticoid receptor; assay: Transactivation activity at glucocorticoid receptor in human HepG2 cells assessed as induction of tyrosine amino transferase; assay type: cell-based
[15] = target: T4, Glucocorticoid receptor (Rattus norvegicus, UniProt P06536); assay: Transactivation activity at glucocorticoid receptor in rat H4II-E cells assessed as induction of tyrosine amino transferase; assay type: cell-based
T4 sequence (P06536 whole entry): T1 sequence (whole entry)

[16] = test system: Rattus norvegicus; assay: Induction of thymolysis in ovalbumin-challenged Brown-Norway rat at upto 730 ug/kg administered via nose inhalation; assay type: organism-based; conditions: in vivo, 0.73 mg/kg
[17] = Therapeutic index, ratio of ED20 for thymolysis to ED70 for forced vital capacity in ovalbumin-challenged Brown-Norway rat; assay type: organism-based; conditions: in vivo, read-out: TI
[18] = species on record: Rattus norvegicus; assay: Ratio of fluticasone propionate TI to compound TI in ovalbumin-challenged Brown-Norway rat
[19] = AUC in rat at 10 mg/kg, po; assay type: ADME, organism-based; set-up: dose 10 mg/kg, route oral; conditions: plasma

Emax [1] | IC50 [2] | Emax [3] | IC50 [4] | EC50 [5] | Emax [6] | Emax [12] | Structure (SMILES) | also measured
4% |  | 86% | 0.0159 µM |  |  | 33% | C[C@]12CCC(=O)C=C1CC[C@@H]1[C@@H]2[C@@H](O)C[C@@]2(C)[C@H]1CC[C@]2(OC(=O)c1ccco1)C(=O)CSc1nccc2ccccc12 | 
62% |  | 99% | 0.00075 µM | 0.0141 µM | 93% | 43% | C[C@]12C=CC(=O)C=C1CC[C@@H]1[C@@H]2[C@@H](O)C[C@@]2(C)[C@H]1CC[C@]2(OC(=O)c1ccco1)C(=O)CSc1nc2ccccc2s1 | EC50 [14]: 0.0508 µM; EC50 [15]: 0.0187 µM
7% |  | 94% | 0.0097 µM |  |  | 35% | C[C@]12CCC(=O)C=C1CC[C@@H]1[C@@H]2[C@@H](O)C[C@@]2(C)[C@H]1CC[C@]2(OC(=O)c1ccco1)C(=O)CSc1ncccn1 | 
9% |  | 97% | 0.0022 µM |  |  | 53% | C[C@]12CCC(=O)C=C1CC[C@@H]1[C@@H]2[C@@H](O)C[C@@]2(C)[C@H]1CC[C@]2(OC(=O)c1ccco1)C(=O)CSc1nc2ccccc2o1 | EC50 [14]: 0.0556 µM
2% |  | 100% | 0.002 µM |  |  | 5% | C[C@]12CCC(=O)C=C1CC[C@@H]1[C@@H]2[C@@H](O)C[C@@]2(C)[C@H]1CC[C@]2(OC(=O)c1ccco1)C(=O)CSc1nc2ccccc2s1 | Activity [16]: >= 20%; selectivity ratio [17]: > 15; Ratio [18]: 10; AUC [19]: 7 ng·h/mL
32% |  | 96% | 0.0021 µM | 0.0173 µM | 73% | 24% | C[C@]12C=CC(=O)C=C1CC[C@@H]1[C@@H]2[C@@H](O)C[C@@]2(C)[C@H]1CC[C@]2(OC(=O)c1ccco1)C(=O)CSc1nccc2ccccc12 | 
17% |  | 98% | 0.0037 µM |  |  | 39% | Cn1c(SCC(=O)[C@@]2(OC(=O)c3ccco3)CC[C@H]3[C@@H]4CCC5=CC(=O)CC[C@]5(C)[C@H]4[C@@H](O)C[C@@]32C)nc2ccccc21 | 
11% |  | 96% | 0.00285 µM |  |  | 22% | C[C@]12CCC(=O)C=C1CC[C@@H]1[C@@H]2[C@@H](O)C[C@@]2(C)[C@H]1CC[C@]2(OC(=O)c1ccco1)C(=O)CSc1ccc2ccccc2n1 | 
12% |  | 100% | 0.0009 µM |  |  | 57% | Cc1nc(SCC(=O)[C@@]2(OC(=O)c3ccco3)CC[C@H]3[C@@H]4CCC5=CC(=O)CC[C@]5(C)[C@H]4[C@@H](O)C[C@@]32C)sc1C | EC50 [14]: 0.0224 µM
2% |  | 94% | 0.0143 µM |  |  | 15% | C[C@]12CCC(=O)C=C1CC[C@@H]1[C@@H]2[C@@H](O)C[C@@]2(C)[C@H]1CC[C@]2(OC(=O)c1ccco1)C(=O)CSc1nc2ncccc2s1 | 
9% |  | 98% | 0.0014 µM |  |  | 41% | C[C@]12CCC(=O)C=C1CC[C@@H]1[C@@H]2[C@@H](O)C[C@@]2(C)[C@H]1CC[C@]2(OC(=O)c1ccco1)C(=O)CSc1cnc2ccccc2n1 | 

More lines, now with the values behind:

Structure (SMILES) | Emax [1] | IC50 [2] | Emax [3] | IC50 [4] | EC50 [5] | Emax [6] | Emax [12] | also measured
C[C@@H]1C[C@H]2[C@@H]3CCC4=CC(=O)C=C[C@]4(C)[C@@]3(Cl)[C@@H](O)C[C@]2(C)[C@@]1(O)C(=O)CSc1nc2ccccc2s1 | 29% | 0.017 µM | 88% | 0.00495 µM | 0.05 µM | 60% |  | 
C[C@H]1C[C@@H]2[C@H]([C@@H](O)C[C@@]3(C)[C@H]2CC[C@]3(O)C(=O)CSc2nc3ccccc3s2)[C@@]2(C)C=CC(=O)C=C12 | 34% | 0.018 µM | 95% | 0.0391 µM | 0.295 µM | 55% |  | 
C[C@]12CCC(=O)C=C1CC[C@@H]1[C@@H]2[C@@H](O)C[C@@]2(C)[C@H]1CC[C@]2(O)C(=O)CSc1nc2ccccc2s1 | 0% | 0.0048 µM | 97% | 0.036 µM |  | 30% | 5% | inhibition (INH) [7]: 27%; ED50 [8]: > 100 mg/kg; ED50 [9]: > 100 mg/kg; ED50 [10]: > 100 mg/kg; ED50 [11]: 0.42 mg/kg; Drug uptake [13]: 85 µg/kg
C[C@]12CCC(=O)C=C1CC[C@H]1[C@@H]3CC[C@](O)(C(=O)CSc4nc5ccccc5s4)[C@@]3(C)C[C@H](O)[C@@]12F | 21% | 0.0046 µM | 95% | 0.0188 µM | 0.535 µM | 63% |  | 
Cc1ccnc(SCC(=O)[C@@]2(OC(=O)c3ccco3)CC[C@H]3[C@@H]4CCC5=CC(=O)C=C[C@]5(C)[C@H]4[C@@H](O)C[C@@]32C)n1 | 24% |  | 98% | 0.0021 µM | 0.0133 µM | 97% | 43% | 
C[C@@H]1C[C@H]2[C@@H]3C[C@H](F)C4=CC(=O)C=C[C@]4(C)[C@@]3(F)[C@@H](O)C[C@]2(C)[C@@]1(O)C(=O)CSc1nc2ccccc2s1 | 79% | 0.013 µM | 100% | 0.0019 µM | 0.017 µM | 66% |  | EC50 [15]: 0.027 µM
CCCC1O[C@@H]2C[C@H]3[C@@H]4CCC5=CC(=O)C=C[C@]5(C)[C@H]4[C@@H](O)C[C@]3(C)[C@]2(C(=O)CO)O1 (some centres not stated) [BUDESONIDE] |  |  |  |  |  |  |  | selectivity ratio [17]: 1
C[C@]12C=CC(=O)C=C1CC[C@@H]1[C@@H]2[C@@H](O)C[C@@]2(C)[C@H]1CC[C@]2(O)C(=O)CSc1nc2ccccc2s1 | 19% | 0.0038 µM | 78% | 0.035 µM |  | 29% |  | 
CCC(=O)OCC(=O)[C@@]1(OC(=O)CC)[C@@H](C)C[C@H]2[C@@H]3CCC4=CC(=O)C=C[C@]4(C)[C@@]3(Cl)[C@@H](O)C[C@@]21C [BECLOMETHASONE DIPROPIONATE] |  |  |  |  |  |  |  | selectivity ratio [17]: 1
C[C@@H]1C[C@H]2[C@@H]3CCC4=CC(=O)C=C[C@]4(C)[C@@]3(F)[C@@H](O)C[C@]2(C)[C@@]1(O)C(=O)CSc1nc2ccccc2s1 | 33% | 0.018 µM | 98% | 0.0044 µM | 0.0455 µM | 68% |  | 
